# Test results taken from ChEMBL document CHEMBL1649565, “Besifloxacin, a novel fluoroquinolone, has broad-spectrum in vitro activity against aerobic and anaerobic bacteria” (Antimicrob Agents Chemother, 2009).
# Activity calls are given as the source filed them. No cut-off for these calls is given here.
# Tests used:
# Citrobacter koseri [1] = experiment: Antibacterial activity against Citrobacter koseri assessed as percent susceptible isolates by CLSI M7-A7 method; type: functional
# [2] = system: Staphylococcus epidermidis; experiment: Antibacterial activity against non-ciprofloxacin-susceptible and methicillin-susceptible Staphylococcus epidermidis assessed as percent susceptible isolates by CLSI M100-S18 method; type: functional
# [3] = system: Staphylococcus lugdunensis; experiment: Antibacterial activity against Staphylococcus lugdunensis by CLSI M100-S18 method; type: functional
# Streptococcus pneumoniae [4] = experiment: Antibacterial activity against non-levofloxacin susceptible Streptococcus pneumoniae assessed as percent susceptible isolates by CLSI M100-S18 method; type: functional
# Enterococcus faecium [5] = experiment: Antibacterial activity against vancomycin- resistant Enterococcus faecium by CLSI M100-S18 method; type: functional
# Streptococcus pneumoniae [6] = experiment: Antibacterial activity against levofloxacin-susceptible Streptococcus pneumoniae by CLSI M100-S18 method; type: functional
# Listeria monocytogenes = experiment: Antibacterial activity against Listeria monocytogenes by CLSI M100-S18 method; type: functional
# Staphylococcus warneri [7] = experiment: Antibacterial activity against Staphylococcus warneri assessed as percent susceptible isolates by CLSI M100-S18 method; type: functional
# Moraxella catarrhalis [8] = experiment: Antibacterial activity against Moraxella catarrhalis assessed as percent susceptible isolates by CLSI M7-A7 method; type: functional
# Staphylococcus warneri [9] = experiment: Antibacterial activity against Staphylococcus warneri by CLSI M100-S18 method; type: functional
# Streptococcus pneumoniae [10] = experiment: Antibacterial activity against non-levofloxacin susceptible Streptococcus pneumoniae by CLSI M100-S18 method; type: functional
# [11] = system: Staphylococcus epidermidis; experiment: Antibacterial activity against ciprofloxacin-susceptible and methicillin-resistant Staphylococcus epidermidis assessed as percent susceptible isolates by CLSI M100-S18 method; type: functional
# Streptococcus agalactiae = experiment: Antibacterial activity against Streptococcus agalactiae by CLSI M100-S18 method; type: functional
# Staphylococcus aureus [12] = experiment: Antibacterial activity against non-ciprofloxacin-susceptible and methicillin-susceptible Staphylococcus aureus assessed as percent susceptible isolates by CLSI M100-S18 method; type: functional
# Staphylococcus hominis [13] = experiment: Antibacterial activity against Staphylococcus hominis assessed as percent susceptible isolates by CLSI M100-S18 method; type: functional
# Staphylococcus aureus [14] = experiment: Antibacterial activity against non-ciprofloxacin-susceptible and methicillin-susceptible Staphylococcus aureus by CLSI M100-S18 method; type: functional
# Staphylococcus aureus [15] = experiment: Antibacterial activity against ciprofloxacin-susceptible and methicillin-resistant Staphylococcus aureus assessed as percent susceptible isolates by CLSI M100-S18 method; type: functional
# Streptococcus pneumoniae [16] = experiment: Antibacterial activity against levofloxacin susceptible Streptococcus pneumoniae assessed as percent susceptible isolates by CLSI M100-S18 method; type: functional
# Haemophilus influenzae [17] = experiment: Antibacterial activity against ciprofloxacin-susceptible Haemophilus influenzae assessed as percent susceptible isolates by CLSI M7-A7 method; type: functional
# Staphylococcus hominis [18] = experiment: Antibacterial activity against Staphylococcus hominis by CLSI M100-S18 method; type: functional
# Enterococcus faecalis [19] = experiment: Antibacterial activity against vancomycin- resistant Enterococcus faecalis by CLSI M100-S18 method; type: functional
# [20] = system: Staphylococcus epidermidis; experiment: Antibacterial activity against ciprofloxacin-susceptible and methicillin-resistant Staphylococcus epidermidis by CLSI M100-S18 method; type: functional
# Streptococcus sp. = experiment: Antibacterial activity against Lancefield Streptococcus sp. group F by CLSI M100-S18 method; type: functional
# Streptococcus anginosus = experiment: Antibacterial activity against Streptococcus anginosus by CLSI M100-S18 method; type: functional
# [21] = system: Staphylococcus saprophyticus; experiment: Antibacterial activity against Staphylococcus saprophyticus assessed as percent susceptible isolates by CLSI M100-S18 method; type: functional
# Legionella pneumophila = experiment: Antibacterial activity against Legionella pneumophila by CLSI M7-A7 method; type: functional
# Haemophilus influenzae [22] = experiment: Antibacterial activity against non-ciprofloxacin-susceptible Haemophilus influenzae assessed as percent susceptible isolates by CLSI M7-A7 method; type: functional
# Citrobacter koseri [23] = experiment: Antibacterial activity against Citrobacter koseri by CLSI M7-A7 method; type: functional
# [24] = Antibacterial activity against Lancefield Streptococcus sp. 'group C' by CLSI M100-S18 method; type: functional
# [25] = Antibacterial activity against Lancefield Streptococcus sp. 'group G' by CLSI M100-S18 method; type: functional
# [26] = system: Streptococcus intermedius; experiment: Antibacterial activity against Streptococcus intermedius by CLSI M100-S18 method; type: functional
# Streptococcus equinus = experiment: Antibacterial activity against Streptococcus bovis by CLSI M100-S18 method; type: functional
# Streptococcus sanguinis = experiment: Antibacterial activity against Streptococcus sanguinis by CLSI M100-S18 method; type: functional
# [27] = system: Staphylococcus haemolyticus; experiment: Antibacterial activity against Staphylococcus haemolyticus assessed as percent susceptible isolates by CLSI M100-S18 method; type: functional
# Neisseria meningitidis [28] = experiment: Antibacterial activity against Neisseria meningitidis by CLSI M7-A7 method; type: functional
# Klebsiella oxytoca [29] = experiment: Antibacterial activity against Klebsiella oxytoca by CLSI M7-A7 method; type: functional
# Streptococcus salivarius = experiment: Antibacterial activity against Streptococcus salivarius by CLSI M100-S18 method; type: functional
# Morganella morganii [30] = experiment: Antibacterial activity against Morganella morganii assessed as percent susceptible isolates by CLSI M7-A7 method; type: functional
# [31] = system: Staphylococcus lugdunensis; experiment: Antibacterial activity against Staphylococcus lugdunensis assessed as percent susceptible isolates by CLSI M100-S18 method; type: functional
# Staphylococcus aureus [32] = experiment: Antibacterial activity against ciprofloxacin-susceptible and methicillin-resistant Staphylococcus aureus by CLSI M100-S18 method; type: functional
# [33] = system: Staphylococcus epidermidis
# Klebsiella oxytoca [34] = experiment: Antibacterial activity against Klebsiella oxytoca assessed as percent susceptible isolates by CLSI M7-A7 method; type: functional
# Neisseria meningitidis [35] = experiment: Antibacterial activity against Neisseria meningitidis assessed as percent susceptible isolates by CLSI M7-A7 method; type: functional
# [36] = system: Staphylococcus haemolyticus; experiment: Antibacterial activity against Staphylococcus haemolyticus by CLSI M100-S18 method; type: functional
# [37] = system: Staphylococcus saprophyticus; experiment: Antibacterial activity against Staphylococcus saprophyticus by CLSI M100-S18 method; type: functional
# [38] = system: Staphylococcus epidermidis; remark: listed apart in the source
# Morganella morganii [39] = experiment: Antibacterial activity against Morganella morganii by CLSI M7-A7 method; type: functional
# Streptococcus oralis = experiment: Antibacterial activity against Streptococcus oralis by CLSI M100-S18 method; type: functional
# Haemophilus influenzae [40] = experiment: Antibacterial activity against ciprofloxacin-susceptible Haemophilus influenzae by CLSI M7-A7 method; type: functional
# [41] = system: Streptococcus constellatus; experiment: Antibacterial activity against Streptococcus constellatus by CLSI M100-S18 method; type: functional
# [42] = system: Staphylococcus epidermidis; experiment: Antibacterial activity against non-ciprofloxacin-susceptible and methicillin-susceptible Staphylococcus epidermidis by CLSI M100-S18 method; type: functional
# Moraxella catarrhalis [43] = experiment: Antibacterial activity against Moraxella catarrhalis by CLSI M7-A7 method; type: functional
# Streptococcus mitis = experiment: Antibacterial activity against Streptococcus mitis by CLSI M100-S18 method; type: functional
# Streptococcus pyogenes = experiment: Antibacterial activity against Streptococcus pyogenes by CLSI M100-S18 method; type: functional
# Haemophilus influenzae [44] = experiment: Antibacterial activity against non-ciprofloxacin-susceptible Haemophilus influenzae by CLSI M7-A7 method; type: functional
# Enterococcus faecium [45] = experiment: Antibacterial activity against vancomycin- resistant Enterococcus faecium assessed as percent susceptible isolates by CLSI M100-S18 method; type: functional
# Enterococcus faecalis [46] = experiment: Antibacterial activity against vancomycin- resistant Enterococcus faecalis assessed as percent susceptible isolates by CLSI M100-S18 method; type: functional
smiles,measurement,setting,value
CC[C@H]1OC(=O)[C@H](C)[C@@H](O[C@H]2C[C@@](C)(OC)[C@@H](O)[C@H](C)O2)[C@H](C)[C@@H](O[C@@H]2O[C@H](C)C[C@H](N(C)C)[C@H]2O)[C@](C)(O)C[C@@H](C)CN(C)[C@H](C)[C@@H](O)[C@]1(C)O [AZITHROMYCIN],Activity,Citrobacter koseri [1],99%
same,Activity,[2],0%
same,MIC50,[3],> 8 µg/mL
same,MIC90,[3],> 8 µg/mL
same,Activity,Streptococcus pneumoniae [4],36.5%
same,MIC50,Enterococcus faecium [5],> 128 µg/mL
same,MIC90,Enterococcus faecium [5],> 128 µg/mL
same,MIC50,Streptococcus pneumoniae [6],0.06 µg/mL
same,MIC90,Streptococcus pneumoniae [6],> 64 µg/mL
same,MIC50,Listeria monocytogenes,0.5 µg/mL
same,MIC90,Listeria monocytogenes,1 µg/mL
same,Activity,Staphylococcus warneri [7],76%
same,Activity,Moraxella catarrhalis [8],100%
same,MIC50,Staphylococcus warneri [9],> 8 µg/mL
same,MIC90,Staphylococcus warneri [9],> 8 µg/mL
same,MIC50,Streptococcus pneumoniae [10],4 µg/mL
same,MIC90,Streptococcus pneumoniae [10],> 64 µg/mL
same,Activity,[11],100%
same,MIC50,Streptococcus agalactiae,0.5 µg/mL
same,MIC90,Streptococcus agalactiae,0.5 µg/mL
same,Activity,Staphylococcus aureus [12],18.2%
same,Activity,Staphylococcus hominis [13],30%
same,MIC50,Staphylococcus aureus [14],> 8 µg/mL
same,MIC90,Staphylococcus aureus [14],> 8 µg/mL
same,Activity,Staphylococcus aureus [15],94.7%
same,Activity,Streptococcus pneumoniae [16],62.5%
same,Activity,Haemophilus influenzae [17],100%
same,MIC50,Staphylococcus hominis [18],> 8 µg/mL
same,MIC90,Staphylococcus hominis [18],> 8 µg/mL
same,MIC50,Enterococcus faecalis [19],> 128 µg/mL
same,MIC90,Enterococcus faecalis [19],> 128 µg/mL
same,MIC,[20],0.25 µg/mL
same,MIC50,Streptococcus sp.,0.5 µg/mL
same,MIC90,Streptococcus sp.,0.5 µg/mL
same,MIC50,Streptococcus anginosus,0.06 µg/mL
same,MIC90,Streptococcus anginosus,> 8 µg/mL
same,Activity,[21],100%
same,MIC50,Legionella pneumophila,0.03 µg/mL
same,MIC90,Legionella pneumophila,0.03 µg/mL
same,Activity,Haemophilus influenzae [22],81.8%
same,MIC50,Citrobacter koseri [23],8 µg/mL
same,MIC90,Citrobacter koseri [23],> 8 µg/mL
same,MIC50,[24],0.5 µg/mL
same,MIC90,[24],0.5 µg/mL
same,MIC50,[25],0.5 µg/mL
same,MIC90,[25],0.5 µg/mL
same,MIC50,[26],1 µg/mL
same,MIC90,[26],1 µg/mL
same,MIC50,Streptococcus equinus,1 µg/mL
same,MIC90,Streptococcus equinus,1 µg/mL
same,MIC50,Streptococcus sanguinis,1 µg/mL
same,MIC90,Streptococcus sanguinis,1 µg/mL
same,Activity,[27],39.6%
same,MIC50,Neisseria meningitidis [28],0.06 µg/mL
same,MIC90,Neisseria meningitidis [28],0.06 µg/mL
same,MIC50,Klebsiella oxytoca [29],> 8 µg/mL
same,MIC90,Klebsiella oxytoca [29],> 8 µg/mL
same,MIC50,Streptococcus salivarius,1 µg/mL
same,MIC90,Streptococcus salivarius,1 µg/mL
same,Activity,Morganella morganii [30],76.5%
same,Activity,[31],66.7%
same,MIC50,Staphylococcus aureus [32],1 µg/mL
same,MIC90,[33],inactive
same,Activity,Klebsiella oxytoca [34],90%
same,Activity,Neisseria meningitidis [35],100%
same,MIC50,[36],> 8 µg/mL
same,MIC90,[36],> 8 µg/mL
same,MIC50,[37],1 µg/mL
same,MIC90,[37],> 8 µg/mL
same,MIC90,[38],inactive
same,MIC50,Morganella morganii [39],> 8 µg/mL
same,MIC90,Morganella morganii [39],> 8 µg/mL
same,MIC50,Streptococcus oralis,1 µg/mL
same,MIC90,Streptococcus oralis,1 µg/mL
same,MIC50,Haemophilus influenzae [40],2 µg/mL
same,MIC90,Haemophilus influenzae [40],2 µg/mL
same,MIC50,[41],1 µg/mL
same,MIC90,[41],1 µg/mL
same,MIC50,[42],> 8 µg/mL
same,MIC,Moraxella catarrhalis [43],0.015 µg/mL
same,MIC50,Moraxella catarrhalis [43],0.015 µg/mL
same,MIC90,Moraxella catarrhalis [43],0.03 µg/mL
same,MIC50,Streptococcus mitis,1 µg/mL
same,MIC90,Streptococcus mitis,1 µg/mL
same,MIC50,Streptococcus pyogenes,0.06 µg/mL
same,MIC90,Streptococcus pyogenes,8 µg/mL
same,MIC50,Haemophilus influenzae [44],1 µg/mL
same,MIC90,Haemophilus influenzae [44],8 µg/mL
CN[C@H](CC(C)C)C(=O)N[C@H]1C(=O)N[C@@H](CC(N)=O)C(=O)N[C@H]2C(=O)N[C@H]3C(=O)N[C@H](C(=O)N[C@H](C(=O)O)c4cc(O)cc(O)c4-c4cc3ccc4O)[C@H](O)c3ccc(c(Cl)c3)Oc3cc2cc(c3O[C@@H]2O[C@H](CO)[C@@H](O)[C@H](O)[C@H]2O[C@H]2C[C@](C)(N)[C@H](O)[C@H](C)O2)Oc2ccc(cc2Cl)[C@H]1O [VANCOMYCIN],MIC,Enterococcus faecium [5],≤ 0.5 µg/mL
same,MIC50,Enterococcus faecium [5],≤ 0.5 µg/mL
same,MIC90,Enterococcus faecium [5],> 32 µg/mL
same,Activity,Enterococcus faecium [45],87.3%
same,MIC50,Enterococcus faecalis [19],1 µg/mL
same,MIC90,Enterococcus faecalis [19],> 32 µg/mL
same,Activity,Enterococcus faecalis [46],80%
